Literature values, collected in patent US20250134829A1, “LOW-DOSE, STABLE-RELEASE TRANSDERMAL PREPARATION AND PATCH, AND METHOD FOR THEIR PRODUCTION” (PÉCSI TUDOMÁNYEGYETEM, priority 2022, published 2025).

Tests used:
[1] = system: capsaicin-sensitive sensory nerve endings; settings: high dose (6-8%) of capsaicin locally
[2] = system: patients suffering from low back pain; settings: topical nonivamide treatment

Row | SMILES | duration of disabling of the capsaicin-sensitive sensory nerve endings (desensitization) [1] | plasma level of the neuropeptide somatostatin [2]
1 | COc1cc(CNC(=O)CCCC/C=C/C(C)C)ccc1O [capsaicin] | 2-3 months | 
2 | CCCCCCCCC(=O)NCc1ccc(O)c(OC)c1 [nonivamide] |  | threefold increase
